Values quoted from earlier work, collected in US12133844B2, “Methods of treating epithelioid cell tumors” (Abraxis BioScience, LLC, priority 2015, dated 2024).
Where two headings read alike, the source gives them in different places. Blank lines part the entries; values can stand above or below the compound they belong to.

Columns and labels:
mTORC1 [1] = target: T1, mTORC1 (Homo sapiens, UniProt P42345); design: endogenous in cells; host or cells: HUVEC
[2] = in vivo
HSA = HSA (Homo sapiens, UniProt P02768)
Chain of HSA (P02768 25-609): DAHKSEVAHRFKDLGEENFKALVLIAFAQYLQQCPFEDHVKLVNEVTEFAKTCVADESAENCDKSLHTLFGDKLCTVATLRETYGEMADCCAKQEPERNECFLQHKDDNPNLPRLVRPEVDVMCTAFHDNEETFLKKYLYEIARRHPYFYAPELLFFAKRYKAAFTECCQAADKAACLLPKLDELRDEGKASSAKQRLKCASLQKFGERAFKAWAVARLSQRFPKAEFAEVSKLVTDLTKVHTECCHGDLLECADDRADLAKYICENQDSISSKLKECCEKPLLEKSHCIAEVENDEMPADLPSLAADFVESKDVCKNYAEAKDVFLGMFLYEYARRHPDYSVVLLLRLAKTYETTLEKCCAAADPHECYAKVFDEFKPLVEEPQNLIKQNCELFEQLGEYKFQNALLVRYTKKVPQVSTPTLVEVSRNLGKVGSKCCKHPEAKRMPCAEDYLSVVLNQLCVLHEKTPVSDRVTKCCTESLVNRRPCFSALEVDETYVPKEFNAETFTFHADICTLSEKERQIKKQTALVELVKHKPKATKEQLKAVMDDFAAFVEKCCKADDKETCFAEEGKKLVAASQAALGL

mTORC1 [3] = target: T1, mTORC1; design: endogenous in cells; conditions: HEK293 cells, 0.2 μM-5 μM
mTORC1 [4] = target: T1, mTORC1; design: endogenous in cells; host or cells: HUVEC; conditions: HUVEC cells, 10 nM-1 μM

Compound: COc1ccc(-c2ccc3c(N4CCOCC4)nc(N4C[C@@H](C)O[C@@H](C)C4)nc3n2)cc1CO [KU-0063794]
inhibition of phosphorylation of mTORC1 at Ser2448 (mTORC1 [1]): dose-dependent and time-dependent

Compound: COc1ccc(COc2cc3oc(=O)c4cc(C(C)O)ccc4c3cc2OC)cc1 (stereo not shown) [Palomid 529]
brain penetration [2]: good brain penetration
affinity for ABCB1/ABCG2 (ABCB1/ABCG2): lacks affinity

Compound: CO[C@H]1C[C@@H]2CC[C@@H](C)[C@@](O)(O2)C(=O)C(=O)N2CCCC[C@H]2C(=O)O[C@H]([C@H](C)C[C@@H]2CC[C@@H](O)[C@H](OC)C2)CC(=O)[C@H](C)/C=C(\C)[C@@H](O)[C@@H](OC)C(=O)[C@H](C)C[C@H](C)/C=C/C=C/C=C/1C [Sirolimus, sirolimus]
binding to HSA (HSA): shown to bind HSA

Now from value to compound:

binding to human plasma proteins (human plasma proteins): shown to bind
Compound: CC(=O)O[C@@]12CO[C@@H]1C[C@H](O)[C@@]1(C)C(=O)[C@H](O)C3=C(C)[C@@H](OC(=O)[C@H](O)[C@@H](NC(=O)OC(C)(C)C)c4ccccc4)C[C@@](O)([C@@H](OC(=O)c4ccccc4)[C@H]21)C3(C)C [docetaxel]

inhibition of mTORC1 (mTORC1 [3]): inhibits mTORC1
inhibition of mTORC1 (mTORC1 [4]): inhibits mTORC1
Compound: WYE-354
